In paper PMC12336439 (Archiv Der Pharmazie, 2025):
Values joined by “and” are separate entries in the source; they are usually repeats but may differ in a detail not shown here. Equal values may be shown once. Read-outs that look alike come from different tables or passages of the source.

Key:
[1] = target: T1, USP7cd (USP7 catalytic domain) (Homo sapiens, UniProt Q93009); test: Ub-AMC enzyme activity assay, IC50 determination; type: biochemical; conditions: 10 nM USP7cd, 500 nM Ub-AMC, 24 h pre-incubation at 20°C
T1 construct: USP7 catalytic domain (USP7CD) (208‐560); made in house
Experimental: Therefore, USP7 was incubated for 24 h with ten different compound concentrations, and IC50 values were then obtained with a fluorescent DUB substrate (Ub‐AMC) (Figure 9A–F). The pre‐incubation times were chosen to account for the slow covalent binding kinetics observed in the previous experiments.
The cleavage activity of USP7cd in the presence or absence of inhibitors was measured using Ubiquitin‐Aminomethylcoumarin (Ub‐AMC) (Enzo Life Sciences GmbH, Lörrach, Germany) as a fluorogenic substrate. The fluorescence was monitored using the CLARIOstar plate reader (BMG Labtech GmbH, Ortenberg, Germany) at 25°C at 360 nm excitation and 460 nm emission wavelengths. […] Each measurement was performed at least twice in duplicate. […] Ub‐AMC was added to a final concentration of 500 nM, and the fluorescence was measured after 1 h. The normalized dose‐response semi‐logarithmic curves were fitted using OriginPro2021 and the four‐parameter logistic function.
Different concentrations of compounds were pre-incubated with USP7 for 24 h at 20 °C in a rotating shaker in 25 mM Tris pH 8.0, 150mM NaCl, 5 mM TCEP supplemented with 0.2 mg/mL bovine serum albumin (BSA). Fluorescence was measured after 1 h of the addition of Ub-AMC. The dose response semi-logarithmic curves were fitted using OriginPro2021 and the four-parameter logistic function.

USP7asoc = target: T2, USP7asoc (Homo sapiens, UniProt Q93009, C300S/C315S/C334S/C478S/C488S/C510S); test: Intact protein MS (UHPLC-ESI-MS), covalent modification of USP7asoc; type: binding; conditions: 24 h incubation at 20°C, protein-to-compound ratio 1:31.25
T2 construct: (208‐560, C300/315/334/448/478/510S); made in house
Experimental: The DSF results described above were validated by UHPLC‐ESI‐MS to verify possible covalent binding through a corresponding mass shift. Intact protein MS is an important screening method in irreversible‐covalent hit identification and is especially suitable for covalent fragment‐based drug discovery (FBDD). It allows for the identification of covalent binders by detecting covalent protein‐compound adducts, thus making use of the stability of the covalent bond. USP7 was prepared in Tris buffer (25 mM Tris pH 8.0, 150 mM NaCl, 5 mM TCEP) with a protein‐to‐compound ratio of 1:31.25 and 5% (v/v) DMSO. The protein‐compound mixtures were all incubated at 20°C for 24 h on a rotating shaker. The analysis of intact protein mass was carried out using UHPLC‐ESI‐MS measurements, with data acquisition and data analysis as previously described.

USP7 [2] = target: T3, USP7 (Homo sapiens, UniProt Q93009); test: Differential scanning fluorimetry (DSF), melting temperature shift of USP7; type: binding; conditions: 8 µM protein, 250 µM compound (1:31.25)
T3 construct: USP7 catalytic domain (USP7CD) (208‐560); made in house
Source text: The influence of the synthesized compounds on the melting temperature (T m) of USP7 and its mutant USP7asoc (active site only cysteine) was investigated by DSF. USP7asoc only retains the catalytic Cys223 while all the other six cysteines are mutated to serine. DSF was selected for initial assessment since it is an efficient and rapid primary screening method readily available to our lab.
An important consideration when assessing covalent inhibitors is the time dependence of covalent target occupancy and thus potency, which is determined by the reaction kinetics of the covalent binding event. To allow for drawing conclusions on compounds with slower reaction kinetics, incubation times of 30 min, 4 h, and 24 h at 20°C were chosen for the DSF screen with USP7 (Table 1 and Figures 2 and 3). The threshold at which compounds were considered (de‐)stabilizers was defined at 0.5°C. In parallel, the intrinsic reactivity of a set of representative compounds was evaluated in a glutathione reactivity assay. […] Data obtained from the GSH reactivity studies are shown in Supporting Information S2: Table S2.1 and Figures S2.1–2.3.
The melting temperatures of USP7 and USP7asoc in the presence or absence of fragments were determined by DSF on a Qiagen Rotor‐Q Model‐5‐Plex HRM real‐time PCR instrument (Qiagen, Hilden, Germany). SYPRO Orange (Life Technologies Corporation, Eugene, OR, USA) was used as a fluorescent dye at a final concentration of 5x. The protein concentration was 8 µM, and the final compound concentration was 250 µM, corresponding to a protein‐to‐compound ratio of 1:31.25. All compounds were dissolved in dimethyl sulfoxide (DMSO) and the proteins in Tris buffer (25 mM Tris pH 8.0, 150 mM NaCl, 5 mM TCEP, 5% (v/v) DMSO). All measurements were performed after 30 min, 4 h, and 24 h of incubation and at least in triplicate. DSF experiments were carried out with a constant heating rate of 270°C/h. The temperature was ramped from 28°C to 60°C–70°C with excitation and emission filters set at 470 nm and 610 nm, respectively. The melting temperatures (T m) of USP7 and USP7asoc were determined from the maxima of the first derivatives of the melting curves in OriginPro2020 (OriginLab, Northampton, MA, USA). The ∆T m was calculated by subtraction of the T m of the protein sample with pure DMSO from the T m of the protein sample mixed with compound. Error propagation was used to average multiple runs for a compound. A compound was considered to be a hit if the shift in the ∆T m was at least 0.50°C [55].

USP7 [3] = target: T3, USP7; test: Intact protein MS (UHPLC-ESI-MS), covalent modification of USP7; type: binding; conditions: 24 h incubation at 20°C, protein-to-compound ratio 1:31.25
Experimental: The DSF results described above were validated by UHPLC‐ESI‐MS to verify possible covalent binding through a corresponding mass shift. Intact protein MS is an important screening method in irreversible‐covalent hit identification and is especially suitable for covalent fragment‐based drug discovery (FBDD). It allows for the identification of covalent binders by detecting covalent protein‐compound adducts, thus making use of the stability of the covalent bond.
USP7 was prepared in Tris buffer (25 mM Tris pH 8.0, 150 mM NaCl, 5 mM TCEP) with a protein‐to‐compound ratio of 1:31.25 and 5% (v/v) DMSO. The protein‐compound mixtures were all incubated at 20°C for 24 h on a rotating shaker. The analysis of intact protein mass was carried out using UHPLC‐ESI‐MS measurements, with data acquisition and data analysis as previously described.

[4] = supplement table, read-out: Biological Activity (IC50)

T1 sequence (Q93009 with tags, fused parts or gaps): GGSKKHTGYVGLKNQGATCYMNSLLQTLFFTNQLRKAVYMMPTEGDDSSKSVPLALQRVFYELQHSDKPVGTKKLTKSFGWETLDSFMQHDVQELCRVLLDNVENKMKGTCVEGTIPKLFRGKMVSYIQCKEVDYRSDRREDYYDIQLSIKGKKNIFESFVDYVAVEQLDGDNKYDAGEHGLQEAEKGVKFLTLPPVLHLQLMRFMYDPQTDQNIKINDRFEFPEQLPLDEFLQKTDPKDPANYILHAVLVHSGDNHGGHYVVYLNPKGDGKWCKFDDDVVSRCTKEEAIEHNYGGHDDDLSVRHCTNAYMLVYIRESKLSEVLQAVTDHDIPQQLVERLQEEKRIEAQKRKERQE
T3 sequence (Q93009 with tags, fused parts or gaps): as above
T2 sequence (Q93009 with tags, fused parts or gaps C300S/C315S/C334S/C478S/C488S/C510S): as the sequence (Q93009 with tags, fused parts or gaps) above, with C96S, C111S, C130S, C274S, C284S, C306S counted along it

SMILES	IC50 ([1]; read-out: IC50 USP7cd)	∆T m ± SD USP7 (USP7 [2]; 30 min incubation at 20°C)	∆T m ± SD USP7 (USP7 [2]; 4 h incubation at 20°C)	∆T m ± SD USP7 (USP7 [2]; 24 h incubation at 20°C)	IC50 [1, 4]	protein species in deconvoluted mass spectrum of USP7asoc (USP7asoc)	protein species in deconvoluted mass spectrum of USP7 (USP7 [3])
CCn1cc(-c2cccc3cnc(Nc4nc(F)ccc4[N+](=O)[O-])cc23)cn1 [7c, 5‐(1‐Ethyl‐1H‐pyrazol‐4‐yl)‐N‐(6‐fluoro‐3‐nitropyridin‐2‐yl)isoquinolin‐3‐amine]	36.2 µM and 36 µM	–0.45 ± 0.12 °C	–0.45 ± 0 °C	–	36.2 ± 2.21 µM	mainly showed the attachment of a single molecule to USP7 and USP7asoc	mainly showed the attachment of a single molecule to USP7 and USP7asoc
Cn1ccc(-c2cccc3cnc(Nc4nc(F)ccc4[N+](=O)[O-])cc23)c1 [7b, N‐(6‐Fluoro‐3‐nitropyridin‐2‐yl)‐5‐(1‐methyl‐1H‐pyrrol‐3‐yl)isoquinolin‐3‐amine]	56.6 µM and 57 µM	–0.10 ± 0.09 °C	0.00 ± 0 °C	0.00 ± 0 °C	56.6 ± 6.11 µM	unmodified protein species as a main peak for both USP7 and USP7asoc	unmodified protein species as a main peak for both USP7 and USP7asoc

Now from value to compound, other results behind:

IC50 ([1]; read-out: IC50 USP7cd)	∆T m ± SD USP7 (USP7 [2]; 30 min incubation at 20°C)	∆T m ± SD USP7 (USP7 [2]; 4 h incubation at 20°C)	∆T m ± SD USP7 (USP7 [2]; 24 h incubation at 20°C)	IC50 [1, 4]	SMILES	protein species in deconvoluted mass spectrum of USP7asoc (USP7asoc)	protein species in deconvoluted mass spectrum of USP7 (USP7 [3])
> 1000 µM	–0.13 ± 0.09 °C	–0.40 ± 0.08 °C	–0.45 ± 0.09 °C	–	O=[N+]([O-])c1ccc(F)nc1Nc1cc2c(-c3ccc(-c4ccncc4)cc3)cccc2cn1 [7i, N‐(6‐Fluoro‐3‐nitropyridin‐2‐yl)‐5‐[4‐(pyridin‐4‐yl)phenyl]isoquinolin‐3‐amine]	unmodified USP7 and USP7asoc as the main peak	unmodified USP7 and USP7asoc as the main peak
26.8 µM and 27 µM	–0.30 ± 0.06 °C	–0.18 ± 0.03 °C	–	26.8 ± 7.54 µM	CCCn1cc(-c2cccc3cnc(Nc4nc(F)ccc4[N+](=O)[O-])cc23)cn1 [7d, N‐(6‐Fluoro‐3‐nitropyridin‐2‐yl)‐5‐(1‐propyl‐1H‐pyrazol‐4‐yl)isoquinolin‐3‐amine]	single modified protein as the main signal	single modified protein as the main signal
48.4 µM and 48 µM	–0.23 ± 0.06 °C	0.02 ± 0.03 °C	–	48.3 ± 5.68 µM	O=[N+]([O-])c1ccc(F)nc1Nc1cc2c(-c3cnn(C4CC4)c3)cccc2cn1 [7e, 5‐(1‐Cyclopropyl‐1H‐pyrazol‐4‐yl)‐N‐(6‐fluoro‐3‐nitropyridin‐2‐yl)isoquinolin‐3‐amine]	mono‐arylated USP7 and USP7asoc species as main peaks	mono‐arylated USP7 and USP7asoc species as main peaks
